Laboratory results taken from patent US20240360178A1, “MACROCYCLIC IMMUNOMODULATORS” (Bristol-Myers Squibb Company, priority 2021, published 2024).
Positions of bridges follow the written chain, without caps; N, C: chain ends. Non-standard residues stand in square brackets, D forms with d. Residues, ends and D or L forms follow the SMILES beside them. *: point of attachment. Phe(4-COOH) = N[C@@H](Cc1ccc(C(=O)O)cc1)C(=O)O; Bip = N[C@@H](Cc1ccc(-c2ccccc2)cc1)C(=O)O; Phe(3-CN) = N#Cc1cccc(C[C@H](N)C(=O)O)c1; Phe(3-OMe) = COc1cccc(C[C@H](N)C(=O)O)c1; NMeF = CN[C@@H](Cc1ccccc1)C(=O)O; 4Pal = N[C@@H](Cc1ccncc1)C(=O)O; Carboxymethyl = O=C(O)C*; NMeA = CN[C@@H](C)C(=O)O; Orn = NCCC[C@H](N)C(=O)O; Dab = NCC[C@H](N)C(=O)O; Dap = NC[C@H](N)C(=O)O; Sar = CNCC(=O)O

target: T1, human PD-1 (Jurkat-PD-1 cells) / PE-labeled human PD-L1-Ig (Homo sapiens, UniProt Q15116); assay: Jurkat-PD-1 Cell Binding High-Content Screening Assay (CBA); Jurkat hPD1-PDL1 assay; details: Jurkat cell line over-expressing human PD-1; PE-labeled PD-L1-Ig 20 nM final; compound incubated 2 hours at 37° C.; read-out: Jurkat HPD1-PDL1 IC50
T1 construct: expressed in transfected cells; host or cells: Jurkat cell line over-expressing human PD-1
Procedure, shortened: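 Read-out is high-content imaging of PE fluorescence on PD-1-over-expressing Jurkat cells. Cells are first exposed to compound for 2 hours at 37° C in serum-containing DMEM, after which PE-labeled PD-L1-Ig is added at 20 nM final.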

T1 sequence (Q15116 25-288): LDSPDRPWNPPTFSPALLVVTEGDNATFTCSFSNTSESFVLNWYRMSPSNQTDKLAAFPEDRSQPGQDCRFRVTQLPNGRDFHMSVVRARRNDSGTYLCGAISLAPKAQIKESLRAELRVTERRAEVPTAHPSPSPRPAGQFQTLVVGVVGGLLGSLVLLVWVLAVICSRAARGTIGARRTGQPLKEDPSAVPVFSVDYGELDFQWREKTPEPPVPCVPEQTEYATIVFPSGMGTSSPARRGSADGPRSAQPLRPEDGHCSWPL

| IC50 [nM] | SMILES |
| --- | --- |
| 160 | CC(C)C[C@@H]1NC(=O)[C@H](Cc2c[nH]c3ccccc23)NC(=O)[C@H](CC(=O)O)NC(=O)[C@H](Cc2ccc(O)cc2)NC(=O)[C@H](Cc2ccccc2)NC(=O)CSC[C@@H](C(=O)NCC(N)=O)NC(=O)[C@H]([C@@H](C)O)NC(=O)[C@H](C(C)C)NC(=O)[C@H](CC(C)C)NC(=O)[C@H](CC(N)=O)NC(=O)[C@H]2CCCN2C(=O)[C@H](C)N(C)C(=O)[C@H](C(C)C)NC(=O)[C@H](Cc2ccc(-c3ccccc3)cc2)NC1=O [Example 1395] ({CH2CO}-FYDWL[Bip]V[NMeA][dP]NLVTCG-NH2; thioether N-14) |
| 70 | CC(C)C[C@@H]1NC(=O)[C@H](Cc2c[nH]c3ccccc23)NC(=O)[C@H](CC(=O)O)NC(=O)[C@H](Cc2ccc(O)cc2)NC(=O)[C@H](Cc2ccccc2)NC(=O)CSC[C@@H](C(=O)NCC(N)=O)NC(=O)[C@H]([C@@H](C)O)NC(=O)[C@H](C(C)C)NC(=O)[C@H](CC(C)C)NC(=O)[C@H](CCN)NC(=O)[C@H]2CCCN2C(=O)[C@H](C)N(C)C(=O)[C@H](C(C)C)NC(=O)[C@H](Cc2ccc(-c3ccccc3)cc2)NC1=O [Example 1396] ({CH2CO}-FYDWL[Bip]V[NMeA][dP][Dab]LVTCG-NH2; thioether N-14) |
| 40 | CC(C)C[C@@H]1NC(=O)[C@H](Cc2c[nH]c3ccccc23)NC(=O)[C@H](CC(=O)O)NC(=O)[C@H](Cc2ccc(O)cc2)NC(=O)[C@H](Cc2ccccc2)NC(=O)CSC[C@@H](C(=O)N[C@@H](C)C(N)=O)NC(=O)[C@H](CO)NC(=O)[C@H](C(C)C)NC(=O)[C@H](CC(C)C)NC(=O)[C@H](CCN)NC(=O)[C@H]2CCCN2C(=O)[C@H](C)N(C)C(=O)[C@H](C(C)C)NC(=O)[C@H](Cc2ccc(-c3ccccc3)cc2)NC1=O [Example 1397] ({CH2CO}-FYDWL[Bip]V[NMeA][dP][Dab]LVSCA-NH2; thioether N-14) |
| 50 | CC(C)C[C@@H]1NC(=O)[C@H](Cc2c[nH]c3ccccc23)NC(=O)[C@H](CC(=O)O)NC(=O)[C@H](Cc2ccc(O)cc2)NC(=O)[C@H](Cc2ccccc2)NC(=O)CSC[C@@H](C(=O)N[C@@H](C)C(N)=O)NC(=O)[C@H]([C@@H](C)O)NC(=O)[C@H](C(C)C)NC(=O)[C@H](CC(C)C)NC(=O)[C@H](CCN)NC(=O)[C@H]2CCCN2C(=O)[C@H](C)N(C)C(=O)[C@H](C(C)C)NC(=O)[C@H](Cc2ccc(-c3ccccc3)cc2)NC1=O [Example 1398] ({CH2CO}-FYDWL[Bip]V[NMeA][dP][Dab]LVTCA-NH2; thioether N-14) |
| 70 | CC(C)C[C@@H]1NC(=O)[C@H](Cc2c[nH]c3ccccc23)NC(=O)[C@H](CC(=O)O)NC(=O)[C@H](Cc2ccc(O)cc2)NC(=O)[C@H](Cc2ccccc2)NC(=O)CSC[C@@H](C(=O)NCC(N)=O)NC(=O)[C@H](CO)NC(=O)[C@H](C(C)C)NC(=O)[C@H](CC(C)C)NC(=O)[C@H](CCN)NC(=O)[C@H]2CCCN2C(=O)[C@H](C)N(C)C(=O)[C@H](C(C)C)NC(=O)[C@H](Cc2ccc(-c3ccccc3)cc2)NC1=O [Example 1399] ({CH2CO}-FYDWL[Bip]V[NMeA][dP][Dab]LVSCG-NH2; thioether N-14) |
| 170 | CC(C)C[C@@H]1NC(=O)[C@H](Cc2c[nH]c3ccccc23)NC(=O)[C@H](CC(=O)O)NC(=O)[C@H](Cc2ccc(O)cc2)NC(=O)[C@H](CC(N)=O)NC(=O)CSC[C@@H](C(=O)N[C@@H](C)C(N)=O)NC(=O)[C@H](CO)NC(=O)[C@H](C(C)C)NC(=O)[C@H](CC(C)C)NC(=O)[C@H](CCN)NC(=O)[C@H]2CCCN2C(=O)[C@H](CCCN)NC(=O)[C@H](C(C)C)NC(=O)[C@H](Cc2ccc(-c3ccccc3)cc2)NC1=O [Example 1401] ({CH2CO}-NYDWL[Bip]V[Orn][dP][Dab]LVSCA-NH2; thioether N-14) |

Continued, molecule first:

| SMILES | IC50 [nM] |
| --- | --- |
| CC(C)C[C@@H]1NC(=O)[C@H](CCCCN)NC(=O)[C@H](Cc2ccccc2)N(C)C(=O)[C@H](C)N(C)C(=O)[C@H](CCCNC(=N)N)NC(=O)[C@H](Cc2ccc(-c3ccccc3)cc2)NC(=O)[C@H](C(C)C)NC(=O)[C@H](Cc2c[nH]c3ccccc23)NC(=O)[C@H](CC(=O)O)NC(=O)[C@H](Cc2ccc(O)cc2)NC(=O)[C@H](CC(N)=O)NC(=O)CSC[C@@H](C(=O)N[C@@H](C)C(N)=O)NC(=O)[C@H]([C@@H](C)O)NC(=O)[C@H](C(C)C)NC1=O [Example 1385] ({CH2CO}-NYDWV[Bip]R[NMeA][NMeF]KLVTCA-NH2; thioether N-14) | 280 |
| CC(C)C[C@@H]1NC(=O)[C@H](Cc2c[nH]c3ccccc23)NC(=O)[C@H](CC(=O)O)NC(=O)[C@H](Cc2ccc(OCC(=O)O)cc2)NC(=O)[C@H](CN)NC(=O)CSC[C@@H](C(=O)N[C@@H](C)C(N)=O)NC(=O)[C@H](CO)NC(=O)[C@H](C(C)C)NC(=O)[C@H](CC(C)C)NC(=O)[C@H](CC(N)=O)NC(=O)[C@H]2CCCN2C(=O)[C@H](C)N(C)C(=O)[C@H](C(C)C)NC(=O)[C@H](Cc2ccc(-c3ccccc3)cc2)NC1=O [Example 1386] ({CH2CO}-[Dap]Y(Carboxymethyl)DWL[Bip]V[NMeA][dP]NLVSCA-NH2; thioether N-14) | 140 |
| COc1cccc(C[C@@H]2NC(=O)[C@H](CC(=O)O)NC(=O)[C@H](Cc3ccc(C(=O)O)cc3)NC(=O)[C@H](Cc3ccncc3)NC(=O)CSC[C@@H](C(=O)N[C@@H](C)C(N)=O)NC(=O)[C@H](CO)NC(=O)[C@H](C(C)C)NC(=O)[C@H](CC(C)C)NC(=O)[C@H](CC(N)=O)NC(=O)[C@H]3CCCN3C(=O)[C@H](C)N(C)C(=O)[C@H](C(C)C)NC(=O)[C@H](Cc3ccc(-c4ccccc4)cc3)NC(=O)[C@H](CC(C)C)NC2=O)c1 [Example 1387] ({CH2CO}-[4Pal][Phe(4-COOH)]D[Phe(3-OMe)]L[Bip]V[NMeA][dP]NLVSCA-NH2; thioether N-14) | 10 |
| COc1cccc(C[C@@H]2NC(=O)[C@H](CC(=O)O)NC(=O)[C@H](Cc3cccc(C#N)c3)NC(=O)[C@H](Cc3ccncc3)NC(=O)CSC[C@@H](C(=O)N[C@@H](C)C(N)=O)NC(=O)[C@H](CO)NC(=O)[C@H](C(C)C)NC(=O)[C@H](CC(C)C)NC(=O)[C@H](CC(N)=O)NC(=O)[C@H]3CCCN3C(=O)[C@H](C)N(C)C(=O)[C@H](C(C)C)NC(=O)[C@H](Cc3ccc(-c4ccccc4)cc3)NC(=O)[C@H](CC(C)C)NC2=O)c1 [Example 1388] ({CH2CO}-[4Pal][Phe(3-CN)]D[Phe(3-OMe)]L[Bip]V[NMeA][dP]NLVSCA-NH2; thioether N-14) | 20 |
| CC(C)C[C@@H]1NC(=O)[C@H](CC(N)=O)NC(=O)[C@H]2CCCN2C(=O)[C@H](C)N(C)C(=O)[C@H](C(C)C)NC(=O)[C@H](Cc2ccc(-c3ccccc3)cc2)NC(=O)[C@@H](CC(C)C)NC(=O)[C@H](Cc2c[nH]c3ccccc23)NC(=O)[C@H](CC(=O)O)NC(=O)[C@H](Cc2ccc(C(=O)O)cc2)NC(=O)[C@H](Cc2ccncc2)NC(=O)CSC[C@@H](C(=O)N[C@@H](C)C(N)=O)NC(=O)[C@@H](CO)NC(=O)[C@H](C(C)C)NC1=O [Example 1389] ({CH2CO}-[4Pal][Phe(4-COOH)]DW[dL][Bip]V[NMeA][dP]NLV[dS]CA-NH2; thioether N-14) | 50 |
| CC(C)C[C@@H]1NC(=O)[C@H](Cc2c[nH]c3ccccc23)NC(=O)[C@H](CC(=O)O)NC(=O)[C@H](Cc2ccc(C(=O)O)cc2)NC(=O)[C@H](CN)NC(=O)CSC[C@@H](C(=O)N[C@@H](C)C(N)=O)NC(=O)[C@H](CO)NC(=O)[C@H](C(C)C)NC(=O)[C@H](CC(C)C)NC(=O)[C@H](CC(N)=O)NC(=O)[C@H]2CCCN2C(=O)[C@H](C)N(C)C(=O)[C@H](C(C)C)NC(=O)[C@H](Cc2ccc(-c3ccccc3)cc2)NC1=O [Example 1390] ({CH2CO}-[Dap][Phe(4-COOH)]DWL[Bip]V[NMeA][dP]NLVSCA-NH2; thioether N-14) | 20 |
| CC(C)C[C@@H]1NC(=O)[C@H](Cc2c[nH]c3ccccc23)NC(=O)[C@H](CC(=O)O)NC(=O)[C@H](Cc2ccc(OCC(=O)O)cc2)NC(=O)[C@H](Cc2ccncc2)NC(=O)CSC[C@@H](C(=O)N[C@@H](C)C(N)=O)NC(=O)[C@H](CO)NC(=O)[C@H](C(C)C)NC(=O)[C@H](CC(C)C)NC(=O)[C@H](CC(N)=O)NC(=O)[C@H]2CCCN2C(=O)[C@H](C)N(C)C(=O)[C@H](C(C)C)NC(=O)[C@H](Cc2ccc(-c3ccccc3)cc2)NC1=O [Example 1391] ({CH2CO}-[4Pal]Y(Carboxymethyl)DWL[Bip]V[NMeA][dP]NLVSCA-NH2; thioether N-14) | 40 |
| COc1cccc(C[C@@H]2NC(=O)[C@H](CC(=O)O)NC(=O)[C@H](Cc3cccc(C#N)c3)NC(=O)[C@H](Cc3ccncc3)NC(=O)CSC[C@@H](C(=O)N[C@@H](C)C(N)=O)NC(=O)[C@H](CO)NC(=O)[C@H](C(C)C)NC(=O)[C@H](CC(C)C)NC(=O)[C@H](CC(N)=O)NC(=O)CN(C)C(=O)[C@H](C)N(C)C(=O)[C@H](C(C)C)NC(=O)[C@H](Cc3ccc(-c4ccccc4)cc3)NC(=O)[C@H](CC(C)C)NC2=O)c1 [Example 1392] ({CH2CO}-[4Pal][Phe(3-CN)]D[Phe(3-OMe)]L[Bip]V[NMeA][Sar]NLVSCA-NH2; thioether N-14) | 50 |
| COc1cccc(C[C@@H]2NC(=O)[C@H](CC(=O)O)NC(=O)[C@H](Cc3cccc(C#N)c3)NC(=O)[C@H](CN)NC(=O)CSC[C@@H](C(=O)N[C@@H](C)C(N)=O)NC(=O)[C@H](CO)NC(=O)[C@H](C(C)C)NC(=O)[C@H](CC(C)C)NC(=O)[C@H](CC(N)=O)NC(=O)[C@H]3CCCN3C(=O)[C@H](C)N(C)C(=O)[C@H](C(C)C)NC(=O)[C@H](Cc3ccc(-c4ccccc4)cc3)NC(=O)[C@H](CC(C)C)NC2=O)c1 [Example 1393] ({CH2CO}-[Dap][Phe(3-CN)]D[Phe(3-OMe)]L[Bip]V[NMeA][dP]NLVSCA-NH2; thioether N-14) | 20 |
| CC(C)C[C@@H]1NC(=O)[C@H](Cc2c[nH]c3ccccc23)NC(=O)[C@H](CC(=O)O)NC(=O)[C@H](Cc2ccc(O)cc2)NC(=O)[C@H](CN)NC(=O)CSC[C@@H](C(=O)N[C@@H](C)C(N)=O)NC(=O)[C@H](CO)NC(=O)[C@H](C(C)C)NC(=O)[C@H](CC(C)C)NC(=O)[C@H](CC(N)=O)NC(=O)[C@H]2CCCN2C(=O)[C@H](C)N(C)C(=O)[C@H](C(C)C)NC(=O)[C@H](Cc2ccc(-c3ccccc3)cc2)NC1=O [Example 1394] ({CH2CO}-[Dap]YDWL[Bip]V[NMeA][dP]NLVSCA-NH2; thioether N-14) | 90 |
